Source: US10913750B2, “Tubulin-binding compounds, compositions and uses related thereto” (The Regents of the University of California, priority 2015, dated 2021)

How the values were obtained:
Type in all cases: cell-based
[1] = tested on: M230; test: CellTiter-Glo cell viability, M230
Method: (§1) To determine if MI-181 had broad anti-cancer activity, we treated a diverse panel of cancer cell lines including cervical adenocarcinoma (HeLa), breast adenocarcinoma (MCF7), melanoma (M233), osteosarcoma (U205), acute lymphoblastic leukemia (CCRF-CEM), non-small cell lung carcinoma (NCI-H460), and breast adenocarcinoma (MCF7) with MI-181 and determined its cell viability IC50 (FIGS. 13A and 13B). […] Therefore, the efficacy of MI-181 was analyzed in a panel of melanoma cell lines with defined genetic backgrounds including BRAF^V600E and NRAS^Q61L mutations and varied sensitivities to Vemurafenib (BRAF inhibitor) and Trametinib (MEK inhibitor), which are currently used to treat BRAF^V600E melanomas^43,44 (FIG. 10c). […] As a general trend BRAF^V600E cell lines were slightly more sensitive than NRAS^Q61L cell lines and MI-181 was effective in Vemurafenib and Trametinib resistant cell lines (FIG. 10c and Table 3). Finally, we tested the ability of MI-181 to inhibit melanoma colony formation using the M233 and M308 cell lines (both resistant to Vemurafenib). Indeed, MI-181 was a potent inhibitor of colony formation (percentage colony formation for 10 nM MI-181=0.2±0.1 and 0.8±0.7; for 10 nM colchicine=0.1±0.06 and 1.5±0.5; and for 10 nM Vemurafenib=94±7 and 102±5) (FIG. 10d). Thus, MI-181 is a potent inhibitor of melanoma cell lines. […]

[2] = tested on: M207; test: CellTiter-Glo cell viability, M207
Method: as §1

[3] = tested on: M397; test: CellTiter-Glo cell viability, M397
Method: as §1

[4] = tested on: M243; test: CellTiter-Glo cell viability, M243
Method: as §1

[5] = tested on: M308; test: Melanoma colony formation, M308; conditions: 10 nM, M308 (second value of pair)
Method: To determine if MI-181 had broad anti-cancer activity, we treated a diverse panel of cancer cell lines including cervical adenocarcinoma (HeLa), breast adenocarcinoma (MCF7), melanoma (M233), osteosarcoma (U205), acute lymphoblastic leukemia (CCRF-CEM), non-small cell lung carcinoma (NCI-H460), and breast adenocarcinoma (MCF7) with MI-181 and determined its cell viability IC50 (FIGS. 13A and 13B). […] Therefore, the efficacy of MI-181 was analyzed in a panel of melanoma cell lines with defined genetic backgrounds including BRAF^V600E and NRAS^Q61L mutations and varied sensitivities to Vemurafenib (BRAF inhibitor) and Trametinib (MEK inhibitor), which are currently used to treat BRAF^V600E melanomas^43,44 (FIG. 10c). […] As a general trend BRAF^V600E cell lines were slightly more sensitive than NRAS^Q61L cell lines and MI-181 was effective in Vemurafenib and Trametinib resistant cell lines (FIG. 10c and Table 3). Finally, we tested the ability of MI-181 to inhibit melanoma colony formation using the M233 and M308 cell lines (both resistant to Vemurafenib). Indeed, MI-181 was a potent inhibitor of colony formation (percentage colony formation for 10 nM MI-181=0.2±0.1 and 0.8±0.7; for 10 nM colchicine=0.1±0.06 and 1.5±0.5; and for 10 nM Vemurafenib=94±7 and 102±5) (FIG. 10d). Thus, MI-181 is a potent inhibitor of melanoma cell lines.

[6] = tested on: melanoma (M233); test: CellTiter-Glo cell viability, M233
Method: as §1

[7] = tested on: breast adenocarcinoma (MCF7); test: Cell viability, MCF7; conditions: Homo sapiens; MCF7 cells
Method: as §1

[8] = tested on: panel of melanoma cell lines; test: Cell viability in a panel of melanoma cell lines; conditions: melanoma cell lines incl. BRAF V600E and NRAS Q61L mutations; read-out: IC50 across melanoma panel
Method: as §1

[9] = tested on: M308; test: CellTiter-Glo cell viability, M308
Method: as §1

[10] = tested on: M244; test: CellTiter-Glo cell viability, M244
Method: as §1

[11] = tested on: M409; test: CellTiter-Glo cell viability, M409
Method: as §1

[12] = tested on: M375; test: CellTiter-Glo cell viability, M375
Method: as §1

[13] = tested on: M395; test: CellTiter-Glo cell viability, M395
Method: as §1

[14] = tested on: diverse panel of cancer cell lines; test: Cell viability in a diverse panel of cancer cell lines; conditions: HeLa, M233, U205, CCRF-CEM, NCI-H460; MCF7 excepted; read-out: cell viability IC50 across most cancer cell lines
Method: as §1

[15] = tested on: HeLa cells; test: CellTiter-Glo cell viability, HeLa cells; conditions: Homo sapiens, HeLa
Method: The cell viability IC50 of each compound was determined using Promega CellTiter-Glo Luminescent Cell Viability Assay kit by measuring the total ATP levels to quantify the number of metabolically active cells upon drug treatment as described in Crouch et al., J Immunol Methods 1993, 160, (1), 81-8. Briefly, the compounds were suspended in DMSO at 10 mM and diluted in 384 plates (20 μl/well in DMSO) in triplicate by a 14-point titration (12 nM to 100 μM). 50 μl of HeLa cells or patient derived glioblastoma cells (HK-309) (2000 cells/well) were then treated with the prepared dilutions of the drugs (0.5 μl) and incubated at 37° C. and 5% CO2. 72 hours later 50 μl of CellTiter-Glo reagent was added to each well followed by a 2 minutes shaking and a 10-minute incubation to lyse the cells. The relative luminescent intensity units (RLU) of each well was measured using a Tecan M1000 microplate reader (Tecan Group Ltd.) with its green filter and 1 second integration time.
Cells used in Example 2 and other examples disclosed herein were cultured as follows: Adherent HeLa cells and patient derived glioblastoma cells were grown with 5% CO2 at 37° C. in F12:DMEM 50:50 medium (Invitrogen) containing 10% FBS and 1% penicillin/streptomycin. To obtain HeLa cells synchronized in mitosis, cycling cells were treated with 2 mM thymidine (Sigma-Aldrich) for eighteen hours, washed three times with PBS, and released into fresh media until they entered mitosis eight hours post-release. Patient-derived glioblastoma cells (HK-309) were collected and grown with approval from the UCLA Institutional Review Board. HK-309 was derived from a recurrent glioblastoma taken from a person. The cells were initially propagated as cancer stem cell-containing spheres in serum-free medium containing basic fibroblast growth factor and epidermal growth factor (Preprotech) as described previously by Visnyei et al., Mol Cancer Ther 2011, 10, (10), 1818-28.
For mitotic arrest IC50s, cells were treated with a twenty-point-2-fold-titration (190 pM to 10 μM) of each compound tested for 20 hours. For cell viability IC50s, cells were treated with a fourteen-point-2-fold-titration (12.2 nM to 100 μM). Mitotic arrest IC50 was determined by measuring the percent G2/M arrest using the Vybrant DyeCycle Green (Invitrogen) assay described above. Cell viability IC50 was determined using the CellTiter-Glo Assay (Promega), which measures total ATP levels. Plates were read with a Tecan M1000 micro-plate reader at 540 nm. The CDD software was used for generating IC50 and IC90 values.

For `Cc1cc2nc(/C=C/c3cccnc3)sc2cc1C` [MI-181], which IC50 [1] is on record?
Its IC50 is 0.042 µM.

And the IC50 [2]?
The IC50 was 0.0417 µM.

What about the IC50 [3] of the same compound?
Its IC50 is 0.0181 µM.

And the IC50 [4]?
Its IC50 is 0.026 µM.

What about the percentage colony formation [5] of the same compound?
Its percentage colony formation is 0.8±0.7.

What about the IC50 [6] of the same compound?
Its IC50 is 0.0244 µM.

And the IC50 [7]?
The IC50 was 11 µM.

And the IC50 [8]?
Its IC50 is 0.018 to 0.09 µM.

And the IC50 [9]?
The IC50 was 0.0283 µM.

And the IC50 [10]?
Its IC50 is 0.0415 µM.

What about the IC50 [11] of the same compound?
Its IC50 is 0.0419 µM.

And the IC50 [12]?
The IC50 was 0.0582 µM.

What about the IC50 [13] of the same compound?
Its IC50 is 0.0234 µM.

What about the IC50 [14] of the same compound?
The IC50 was 0.03 to 0.36 µM.

And the IC50 [15]?
The IC50 was 0.0174 µM.
